From ChEMBL document CHEMBL3867474, “Discovery of novel pyrrolidineoxy-substituted heteroaromatics as potent and selective PI3K delta inhibitors with improved physicochemical properties” (Bioorg Med Chem Lett, 2016)
In brackets after ≈: the same amount, converted by molar mass.

Assays:
[1] = biological target: T1, Phosphatidylinositol 4,5-bisphosphate 3-kinase catalytic subunit alpha isoform (Homo sapiens, UniProt P42336); experiment: Inhibition of PI3K-alpha (unknown origin) by KinaseGlo assay
[2] = biological target: T2, Phosphatidylinositol 4,5-bisphosphate 3-kinase catalytic subunit beta isoform (Homo sapiens, UniProt P42338); experiment: Inhibition of PI3K-beta (unknown origin) by KinaseGlo assay
[3] = biological target: Phosphatidylinositol 4,5-bisphosphate 3-kinase catalytic subunit gamma isoform (Homo sapiens, UniProt P48736); experiment: Inhibition of PI3K-gamma (unknown origin) by KinaseGlo assay
[4] = biological target: T3, Phosphatidylinositol 4,5-bisphosphate 3-kinase catalytic subunit delta isoform (Homo sapiens, UniProt O00329); experiment: Inhibition of PI3K-delta (unknown origin) by KinaseGlo assay
T3 sequence (O00329 whole entry): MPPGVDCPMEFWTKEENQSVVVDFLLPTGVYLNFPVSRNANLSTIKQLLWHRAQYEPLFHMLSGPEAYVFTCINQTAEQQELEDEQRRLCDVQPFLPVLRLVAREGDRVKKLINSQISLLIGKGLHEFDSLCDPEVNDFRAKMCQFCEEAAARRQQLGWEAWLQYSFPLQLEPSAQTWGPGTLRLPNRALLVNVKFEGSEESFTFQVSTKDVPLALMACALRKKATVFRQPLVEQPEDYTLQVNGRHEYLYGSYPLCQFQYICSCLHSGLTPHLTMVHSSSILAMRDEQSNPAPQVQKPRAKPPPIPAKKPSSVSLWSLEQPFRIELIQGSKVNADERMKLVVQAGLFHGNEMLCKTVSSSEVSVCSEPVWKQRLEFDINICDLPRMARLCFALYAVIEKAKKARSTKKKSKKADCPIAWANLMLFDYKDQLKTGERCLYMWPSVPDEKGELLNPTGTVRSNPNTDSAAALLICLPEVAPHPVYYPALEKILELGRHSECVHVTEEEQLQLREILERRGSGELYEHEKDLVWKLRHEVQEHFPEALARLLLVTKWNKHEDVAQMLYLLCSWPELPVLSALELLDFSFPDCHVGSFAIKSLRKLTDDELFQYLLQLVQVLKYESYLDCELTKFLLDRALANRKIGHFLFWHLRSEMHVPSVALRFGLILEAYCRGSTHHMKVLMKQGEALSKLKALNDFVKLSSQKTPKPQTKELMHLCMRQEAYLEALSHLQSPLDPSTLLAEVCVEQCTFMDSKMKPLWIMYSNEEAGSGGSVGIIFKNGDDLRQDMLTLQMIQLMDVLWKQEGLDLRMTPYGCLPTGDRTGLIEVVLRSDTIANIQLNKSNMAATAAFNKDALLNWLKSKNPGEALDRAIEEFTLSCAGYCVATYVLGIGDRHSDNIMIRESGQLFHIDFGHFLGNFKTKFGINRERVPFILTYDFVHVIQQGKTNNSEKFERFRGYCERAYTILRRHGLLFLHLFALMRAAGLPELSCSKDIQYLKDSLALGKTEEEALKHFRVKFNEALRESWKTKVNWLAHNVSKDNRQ

[5] = Lipophilicity, log P of the compound by high-throughput assay; format: physicochemical; conditions: octanol/water
[6] = Solubility of the compound at pH 6.8 by high-throughput equilibrium analysis; format: physicochemical; conditions: buffer
[7] = biological target: T1, Phosphatidylinositol 4,5-bisphosphate 3-kinase catalytic subunit alpha isoform; experiment: Inhibition of myristoylated PI3K-alpha (unknown origin) overexpressed in Rat1 cells assessed as inhibition of Akt phosphorylation; format: cell-based
[8] = biological target: T2, Phosphatidylinositol 4,5-bisphosphate 3-kinase catalytic subunit beta isoform; experiment: Inhibition of myristoylated PI3K-beta (unknown origin) overexpressed in Rat1 cells assessed as inhibition of Akt phosphorylation; format: cell-based
[9] = biological target: T3, Phosphatidylinositol 4,5-bisphosphate 3-kinase catalytic subunit delta isoform; experiment: Inhibition of myristoylated PI3K-delta (unknown origin) overexpressed in Rat1 cells assessed as inhibition of Akt phosphorylation; format: cell-based
[10] = biological target: T4, Phosphatidylinositol 4,5-bisphosphate 3-kinase catalytic subunit delta isoform (Mus musculus, UniProt O35904); experiment: Inhibition of PI3K-delta in mouse splenocytes assessed as inhibition anti-IgM induced CD86 expression; format: cell-based
T4 sequence (O35904 whole entry): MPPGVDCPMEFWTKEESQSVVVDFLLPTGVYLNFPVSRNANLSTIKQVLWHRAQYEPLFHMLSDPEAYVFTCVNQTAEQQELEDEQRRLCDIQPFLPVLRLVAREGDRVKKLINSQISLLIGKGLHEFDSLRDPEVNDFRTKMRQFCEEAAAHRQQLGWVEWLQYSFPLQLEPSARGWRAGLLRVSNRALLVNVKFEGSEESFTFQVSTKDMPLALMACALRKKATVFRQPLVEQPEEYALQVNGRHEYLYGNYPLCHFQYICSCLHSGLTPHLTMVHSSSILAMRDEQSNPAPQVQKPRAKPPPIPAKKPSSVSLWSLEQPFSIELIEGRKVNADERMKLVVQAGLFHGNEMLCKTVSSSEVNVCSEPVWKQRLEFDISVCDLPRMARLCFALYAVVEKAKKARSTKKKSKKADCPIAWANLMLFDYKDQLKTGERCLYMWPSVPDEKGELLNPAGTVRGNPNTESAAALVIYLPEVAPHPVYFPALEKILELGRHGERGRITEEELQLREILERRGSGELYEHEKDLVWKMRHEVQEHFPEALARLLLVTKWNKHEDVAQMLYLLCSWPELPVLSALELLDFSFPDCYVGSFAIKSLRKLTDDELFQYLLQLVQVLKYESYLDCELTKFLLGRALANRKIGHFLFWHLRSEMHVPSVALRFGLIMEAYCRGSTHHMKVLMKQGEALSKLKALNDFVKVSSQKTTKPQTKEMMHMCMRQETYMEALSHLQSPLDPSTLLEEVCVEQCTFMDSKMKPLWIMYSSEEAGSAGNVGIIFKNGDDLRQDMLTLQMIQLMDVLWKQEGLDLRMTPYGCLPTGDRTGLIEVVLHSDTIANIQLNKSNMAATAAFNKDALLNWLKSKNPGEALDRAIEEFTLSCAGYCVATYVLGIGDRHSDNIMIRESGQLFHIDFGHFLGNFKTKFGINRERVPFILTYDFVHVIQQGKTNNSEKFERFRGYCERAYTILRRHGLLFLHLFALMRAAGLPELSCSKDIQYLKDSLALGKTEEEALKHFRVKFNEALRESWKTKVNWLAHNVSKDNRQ

[11] = Inhibition of PI3K-delta in rat whole blood assessed as inhibition of anti-IgM/IL4 induced CD86 expression; format: tissue-based
[12] = biological target: T5, Phosphatidylinositol 4,5-bisphosphate 3-kinase catalytic subunit delta isoform (Homo sapiens) (UniProt O00329); experiment: Selectivity ratio of IC50 for myristoylated PI3K-delta (unknown origin) overexpressed in Rat1 cells to IC50 for PI3K-delta (unknown origin); format: cell-based
T5 sequence (whole entry): T3 sequence (O00329 whole entry)

[13] = tested on: Rat1; experiment: Selectivity ratio of IC50 for PI3K-delta in rat whole blood to IC50 for myristoylated PI3K-delta (unknown origin) overexpressed in Rat1 cells; format: cell-based

T2 sequence (P42338 whole entry, canonical isoform): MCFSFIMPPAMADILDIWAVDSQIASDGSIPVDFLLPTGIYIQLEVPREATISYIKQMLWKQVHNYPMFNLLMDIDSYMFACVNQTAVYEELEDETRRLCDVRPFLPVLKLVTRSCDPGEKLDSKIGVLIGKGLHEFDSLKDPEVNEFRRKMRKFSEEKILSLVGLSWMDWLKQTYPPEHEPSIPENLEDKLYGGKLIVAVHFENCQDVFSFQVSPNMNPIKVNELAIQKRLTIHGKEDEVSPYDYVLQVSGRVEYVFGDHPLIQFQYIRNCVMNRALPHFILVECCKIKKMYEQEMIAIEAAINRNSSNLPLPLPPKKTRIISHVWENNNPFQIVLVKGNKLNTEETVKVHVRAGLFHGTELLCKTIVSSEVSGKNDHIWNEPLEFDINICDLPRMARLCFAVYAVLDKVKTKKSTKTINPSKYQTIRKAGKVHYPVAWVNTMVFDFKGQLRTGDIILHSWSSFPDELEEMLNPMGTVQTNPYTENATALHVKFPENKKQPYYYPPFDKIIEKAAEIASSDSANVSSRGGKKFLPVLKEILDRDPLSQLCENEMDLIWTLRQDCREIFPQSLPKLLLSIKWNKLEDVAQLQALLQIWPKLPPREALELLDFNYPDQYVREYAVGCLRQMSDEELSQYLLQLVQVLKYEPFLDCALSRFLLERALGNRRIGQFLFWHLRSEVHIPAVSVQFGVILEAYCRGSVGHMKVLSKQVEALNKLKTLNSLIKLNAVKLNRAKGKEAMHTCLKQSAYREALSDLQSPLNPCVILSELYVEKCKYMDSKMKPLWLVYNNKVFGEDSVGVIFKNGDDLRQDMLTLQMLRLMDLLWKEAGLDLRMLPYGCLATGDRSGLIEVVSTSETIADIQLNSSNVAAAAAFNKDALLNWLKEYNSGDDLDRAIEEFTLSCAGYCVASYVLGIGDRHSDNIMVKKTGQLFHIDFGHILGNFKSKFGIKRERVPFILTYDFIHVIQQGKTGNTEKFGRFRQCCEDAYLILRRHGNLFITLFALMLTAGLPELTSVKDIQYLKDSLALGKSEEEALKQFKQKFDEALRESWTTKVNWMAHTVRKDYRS
T1 sequence (P42336 whole entry, canonical isoform): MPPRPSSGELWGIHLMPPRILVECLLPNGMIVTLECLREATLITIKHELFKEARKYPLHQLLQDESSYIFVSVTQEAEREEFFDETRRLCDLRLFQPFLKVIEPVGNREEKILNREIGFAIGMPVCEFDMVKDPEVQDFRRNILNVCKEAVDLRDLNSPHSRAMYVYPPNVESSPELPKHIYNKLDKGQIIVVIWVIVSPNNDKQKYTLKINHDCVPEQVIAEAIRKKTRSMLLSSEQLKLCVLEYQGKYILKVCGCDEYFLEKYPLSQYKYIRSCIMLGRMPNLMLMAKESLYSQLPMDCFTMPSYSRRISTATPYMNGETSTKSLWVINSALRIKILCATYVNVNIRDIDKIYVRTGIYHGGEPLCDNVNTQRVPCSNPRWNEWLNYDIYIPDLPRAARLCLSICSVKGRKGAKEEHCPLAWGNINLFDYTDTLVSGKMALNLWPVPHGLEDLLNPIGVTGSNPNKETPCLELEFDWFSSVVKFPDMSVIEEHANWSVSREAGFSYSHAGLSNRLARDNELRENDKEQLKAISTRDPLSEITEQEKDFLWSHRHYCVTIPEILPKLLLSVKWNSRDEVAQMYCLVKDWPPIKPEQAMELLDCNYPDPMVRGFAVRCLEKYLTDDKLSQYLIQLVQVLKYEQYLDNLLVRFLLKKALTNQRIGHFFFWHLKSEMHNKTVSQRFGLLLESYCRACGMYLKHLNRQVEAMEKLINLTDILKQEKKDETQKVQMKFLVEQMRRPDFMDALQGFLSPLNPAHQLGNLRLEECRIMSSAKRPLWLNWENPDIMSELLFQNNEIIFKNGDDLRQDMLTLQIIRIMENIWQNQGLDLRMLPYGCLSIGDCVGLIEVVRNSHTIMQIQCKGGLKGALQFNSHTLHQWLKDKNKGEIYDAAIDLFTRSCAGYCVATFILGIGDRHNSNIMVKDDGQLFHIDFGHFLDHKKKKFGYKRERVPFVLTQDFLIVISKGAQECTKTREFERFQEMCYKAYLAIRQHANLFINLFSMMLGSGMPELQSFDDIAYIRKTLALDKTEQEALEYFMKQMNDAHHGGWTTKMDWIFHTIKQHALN
Chain of Phosphatidylinositol 4,5-bisphosphate 3-kinase catalytic subunit gamma isoform (P48736 whole entry, canonical isoform): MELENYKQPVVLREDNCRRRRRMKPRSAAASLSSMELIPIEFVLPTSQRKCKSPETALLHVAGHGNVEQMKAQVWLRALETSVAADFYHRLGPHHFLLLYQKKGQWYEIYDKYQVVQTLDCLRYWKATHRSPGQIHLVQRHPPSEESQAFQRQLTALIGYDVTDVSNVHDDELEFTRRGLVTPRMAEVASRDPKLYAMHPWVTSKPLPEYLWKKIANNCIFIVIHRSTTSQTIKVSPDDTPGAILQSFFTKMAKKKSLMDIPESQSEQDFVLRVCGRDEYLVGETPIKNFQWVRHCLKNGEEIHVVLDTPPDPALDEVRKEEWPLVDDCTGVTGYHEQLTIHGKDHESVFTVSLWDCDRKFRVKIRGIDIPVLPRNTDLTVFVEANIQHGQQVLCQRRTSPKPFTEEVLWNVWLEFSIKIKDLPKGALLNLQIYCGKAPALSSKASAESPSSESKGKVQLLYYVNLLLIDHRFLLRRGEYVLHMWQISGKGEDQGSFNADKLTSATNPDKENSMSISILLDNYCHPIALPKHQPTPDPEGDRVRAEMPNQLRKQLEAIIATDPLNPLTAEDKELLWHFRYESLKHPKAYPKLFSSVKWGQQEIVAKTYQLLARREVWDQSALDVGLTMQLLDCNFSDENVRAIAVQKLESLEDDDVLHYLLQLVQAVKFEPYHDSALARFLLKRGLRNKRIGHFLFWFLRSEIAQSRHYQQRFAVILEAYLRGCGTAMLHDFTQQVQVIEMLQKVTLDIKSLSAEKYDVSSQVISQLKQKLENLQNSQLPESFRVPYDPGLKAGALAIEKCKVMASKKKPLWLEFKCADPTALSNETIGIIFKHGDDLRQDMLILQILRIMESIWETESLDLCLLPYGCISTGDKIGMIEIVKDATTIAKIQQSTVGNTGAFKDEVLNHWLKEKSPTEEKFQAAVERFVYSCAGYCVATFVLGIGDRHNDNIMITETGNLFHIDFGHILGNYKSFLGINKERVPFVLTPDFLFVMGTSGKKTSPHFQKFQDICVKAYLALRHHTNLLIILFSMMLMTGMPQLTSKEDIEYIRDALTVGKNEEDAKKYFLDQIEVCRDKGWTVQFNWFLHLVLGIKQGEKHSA

SMILES	IC50 [1]	IC50 [2]	IC50 [3]	IC50 [4]	logP [5]	solubility thermodynamic [6]	IC50 [7]	IC50 [8]	IC50 [9]	IC50 [10]	IC50 [11]	Ratio IC50 [12]	Ratio IC50 [13]
COc1ccc(-c2ccc3ncnc(O[C@H]4CCN(C)C4)c3c2)cc1OC	888 nM	1480 nM	1210 nM	130 nM	3.6	> 1000 µM	–	–	–	–	–	–	–
CCC(=O)N1CC[C@@H](Oc2cnc3ccc(-c4ccc(OC)c(OC)c4)cc3n2)C1	491 nM	860 nM	366 nM	15 nM	3.8	40 µM (≈ 16.3 µg/mL)	1860 nM	2130 nM	72 nM	85 nM	282 nM	5	4
CCC(=O)N1CC[C@H](Oc2ncnc3ccc(-c4ccc(OC)nc4)cc23)C1	218 nM	669 nM	698 nM	9 nM	2.8	> 1000 µM	1030 nM	1780 nM	28 nM	82 nM	297 nM	3	11
CCC(=O)N1CC[C@H](Oc2ncnc3ccc(-c4cnc(OC)c(C#N)c4)cc23)C1	386 nM	360 nM	978 nM	5 nM	2.6	10 µM (≈ 4.03 µg/mL)	1380 nM	1280 nM	79 nM	–	–	16	–
COc1ccc(-c2ccc3ncnc(O[C@H]4CCN(C(=O)OC(C)(C)C)C4)c3c2)cc1OC	148 nM	956 nM	282 nM	10 nM	5.3	9 µM (≈ 4.06 µg/mL)	262 nM	1520 nM	44 nM	–	–	4	–
CCC(=O)N1CC[C@H](Oc2cnc3ccc(-c4ccc(OC)c(OC)c4)cc3n2)C1	3230 nM	> 9100 nM	3780 nM	488 nM	3.7	80 µM (≈ 32.6 µg/mL)	–	–	–	–	–	–	–
COc1ccc(-c2ccc3ncnc(O[C@@H]4CCN(C(=O)OC(C)(C)C)C4)c3c2)cc1OC	693 nM	3880 nM	642 nM	256 nM	4.9	6 µM (≈ 2.71 µg/mL)	–	–	–	–	–	–	–
COc1ccc(-c2ccc3ncnc(-c4cccc(C(=O)N5CCN(C(C)=O)CC5)c4)c3c2)cc1OC	–	–	–	–	–	610 µM (≈ 303 µg/mL)	–	–	–	–	–	–	–
CCC(=O)N1CC[C@H](Oc2cnnc3ccc(-c4ccc(OC)nc4)cc23)C1	5080 nM	9010 nM	> 9100 nM	188 nM	2.8	370 µM (≈ 140 µg/mL)	> 10000 nM	> 10000 nM	2840 nM	–	–	13	–
COc1ccc(-c2ccc3ncnc(O[C@@H]4CCN(C(C)=O)C4)c3c2)cc1OC	676 nM	1790 nM	1230 nM	146 nM	2.4	> 1000 µM	–	–	–	–	–	–	–
CCC(=O)N1CC[C@H](Oc2ccnc3ccc(-c4ccc(OC)nc4)cc23)C1	220 nM	655 nM	828 nM	11 nM	3.4	> 1000 µM	606 nM	877 nM	162 nM	155 nM	377 nM	15	2.3
CCC(=O)N1CC[C@H](Oc2ccnc3ccc(-c4ccc(OC)nc4)nc23)C1	424 nM	1030 nM	2940 nM	22 nM	2.2	> 1000 µM	2360 nM	3210 nM	646 nM	–	–	29	–
COc1ccc(-c2ccc3ncnc(O[C@@H]4CCN(C)C4)c3c2)cc1OC	842 nM	1940 nM	2070 nM	110 nM	3.6	> 1000 µM	–	–	–	–	–	–	–
COc1ccc(-c2ccc3ncnc(O[C@H]4CCN(C(C)=O)C4)c3c2)cc1OC	126 nM	304 nM	194 nM	16 nM	2.6	> 1000 µM	210 nM	407 nM	82 nM	–	–	5	–
